Source: patent publication US10577363B2, “Substituted piperidine compounds” (EPIZYME, INC., priority 2014, dated 2020)

Key:
[1] = target: T1, SMYD3 (Homo sapiens (Human), UniProt Q9H7B4); assay: SMYD3 cell assay (Trimethyl-MEKK2 In-Cell Western in 293T/17 cells); type: cell-based; conditions: 293T/17 cells; read-out: SMYD3 Cell IC50 (μM)*
Procedure, shortened: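 In-Cell Western ratio of trimethyl-Lys260 MEKK2 to anti-flag signal; percent inhibition from DMSO and maximum-inhibition controls, IC50 by non-linear regression, triplicates.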

[2] = target: T1, SMYD3; assay: SMYD3 biochemical assay (SPA, 3H-SAM methylation of MEKK2 protein substrate); conditions: read-out: SMYD3 Biochem IC50 (μM)*
Procedure, shortened: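 Full-length native human SMYD3 (E. coli-expressed, tags removed) preincubated with compounds 30 min at room temperature, then reaction started with 3H-SAM and GST-tagged MEKK2 protein in 25 mM Tris-Cl pH 8.0, 1 mM TCEP, 0.005% BSG, 0.005% Tween 20. Quenched with unlabelled SAM (100 uM final); 3H-MEKK2 counted by SPA.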

T1 sequence (Q9H7B4 whole entry): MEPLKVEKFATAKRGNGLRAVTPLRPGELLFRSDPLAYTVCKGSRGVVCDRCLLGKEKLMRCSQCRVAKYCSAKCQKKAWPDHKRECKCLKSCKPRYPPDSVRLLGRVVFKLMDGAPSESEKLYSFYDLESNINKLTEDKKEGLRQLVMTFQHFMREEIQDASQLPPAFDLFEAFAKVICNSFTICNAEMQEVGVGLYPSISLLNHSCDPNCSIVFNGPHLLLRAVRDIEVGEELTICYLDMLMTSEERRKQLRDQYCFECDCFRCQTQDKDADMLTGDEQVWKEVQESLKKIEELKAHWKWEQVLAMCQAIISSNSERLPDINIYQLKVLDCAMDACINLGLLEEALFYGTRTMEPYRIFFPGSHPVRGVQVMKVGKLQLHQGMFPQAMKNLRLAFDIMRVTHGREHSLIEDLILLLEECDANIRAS

Work on `C[C@H]1CN(C(=O)[C@H]2CC[C@H](N)CC2)[C@@H](C)C[C@H]1NC(=O)c1cc(C2CC2)on1` [compound 419, N-((2S,4R,5S)-1-((1r,4S)-4-aminocyclohexane-1-carbonyl)-2,5-dimethylpiperidin-4-yl)-5-cyclopropylisoxazole-3-carboxamide] yielded an IC50 [1] of over 10 µM and an IC50 [2] of 1.95 µM.

`NCCCS(=O)(=O)N1CC[C@H](NC(=O)c2cc(C3CC3)on2)C[C@H]1Cc1ccccc1` [compound 423, N-((2R,4S)-1-((3-aminopropyl)sulfonyl)-2-benzylpiperidin-4-yl)-5-cyclopropylisoxazole-3-carboxamide] was tested, and the IC50 [1] was 1.86 µM and the IC50 [2] was 0.25 µM.

`NCCCS(=O)(=O)N1CC[C@H](NC(=O)c2cc(C3CC3)on2)C[C@@H]1Cc1ccccc1` [compound 424, N-((2S,4S)-1-((3-aminopropyl)sulfonyl)-2-benzylpiperidin-4-yl)-5-cyclopropylisoxazole-3-carboxamide] showed an IC50 [1] of 1.8 µM and an IC50 [2] of 0.228 µM.

`CC1CC(NC(=O)c2cc(C3CC3)on2)CCN1C(=O)Cc1ncc[nH]1` (centres unmarked) [compound 427, N-(1-(2-(1H-imidazol-2-yl)acetyl)-2-methylpiperidin-4-yl)-5-cyclopropylisoxazole-3-carboxamide] gave an IC50 [1] of over 10 µM and an IC50 [2] of over 10 µM.

With `C[C@@H]1C[C@H](NC(=O)c2cc(C3CC3)on2)CCN1S(=O)(=O)c1c[nH]cn1` [compound 428, N-((2R,4R)-1-((1H-imidazol-4-yl)sulfonyl)-2-methylpiperidin-4-yl)-5-cyclopropylisoxazole-3-carboxamide] the IC50 [1] was 2.58 µM and the IC50 [2] was 0.732 µM.

`CC(=O)Nc1ccc(S(=O)(=O)N2[C@@H]3CC[C@H]2C[C@H](NC(=O)c2cc(C4CC4)on2)C3)cc1` [compound 430, N-((1R,3s,5S)-8-((4-acetamidophenyl)sulfonyl)-8-azabicyclo[3.2.1]octan-3-yl)-5-cyclopropylisoxazole-3-carboxamide] gave an IC50 [1] of 4.52 µM and an IC50 [2] of 3.66 µM.

For `O=C(Nc1ccc(S(=O)(=O)N2[C@@H]3CC[C@H]2C[C@@H](NC(=O)c2cc(C4CC4)on2)C3)cc1)c1ccncc1` [compound 431, 5-cyclopropyl-N-((1R,3r,5S)-8-((4-(isonicotinamido)phenyl)sulfonyl)-8-azabicyclo[3.2.1]octan-3-yl)isoxazole-3-carboxamide], the IC50 [1] was over 10 µM and the IC50 [2] was over 10 µM.

With `O=C1Cc2cc(S(=O)(=O)N3[C@@H]4CC[C@H]3C[C@@H](NC(=O)c3cc(C5CC5)on3)C4)c(Cl)cc2N1` [compound 432, N-((1R,3r,5S)-8-((6-chloro-2-oxoindolin-5-yl)sulfonyl)-8-azabicyclo[3.2.1]octan-3-yl)-5-cyclopropylisoxazole-3-carboxamide] the IC50 [1] was over 10 µM and the IC50 [2] was 6.3 µM.

`O=C1Cc2cc(S(=O)(=O)N3[C@@H]4CC[C@H]3C[C@@H](NC(=O)c3cc(C5CC5)on3)C4)ccc2N1` [compound 433, 5-cyclopropyl-N-((1R,3r,5S)-8-((2-oxoindolin-5-yl)sulfonyl)-8-azabicyclo[3.2.1]octan-3-yl)isoxazole-3-carboxamide] was tested, and the IC50 [1] was over 10 µM and the IC50 [2] was 4.19 µM.

`O=C(N[C@H]1C[C@H]2CC[C@@H](C1)N2S(=O)(=O)c1ccc2[nH]c(=O)[nH]c2c1)c1cc(C2CC2)on1` [compound 434, 5-cyclopropyl-N-((1R,3r,5S)-8-((2-oxo-2,3-dihydro-1H-benzo[d]imidazol-5-yl)sulfonyl)-8-azabicyclo[3.2.1]octan-3-yl)isoxazole-3-carboxamide] showed an IC50 [1] of over 10 µM and an IC50 [2] of 2.41 µM.

In the case of `O=C(N[C@@H]1C[C@H]2CC[C@@H](C1)N2S(=O)(=O)CCN1CCCC1)c1cc(C2CC2)on1` [compound 435, 5-cyclopropyl-N-((1R,3s,5S)-8-((2-(pyrrolidin-1-yl)ethyl)sulfonyl)-8-azabicyclo[3.2.1]octan-3-yl)isoxazole-3-carboxamide], the IC50 [1] is reported as 5.59 µM and the IC50 [2] is reported as 2 µM.

For `O=C(N[C@H]1CCN(S(=O)(=O)CCN2CCCC2)[C@@H](Cc2ccccc2)C1)c1cc(C2CC2)on1` [compound 437, N-((2S,4S)-2-benzyl-1-((2-(pyrrolidin-1-yl)ethyl)sulfonyl)piperidin-4-yl)-5-cyclopropylisoxazole-3-carboxamide], the IC50 [1] was 4.62 µM and the IC50 [2] was 1 µM.

`O=C(N[C@@H]1CCN(S(=O)(=O)CCCN2CCOCC2)[C@@H](Cc2ccccc2)C1)c1cc(C2CC2)on1` [compound 438, N-((2S,4R)-2-benzyl-1-((3-morpholinopropyl)sulfonyl)piperidin-4-yl)-5-cyclopropylisoxazole-3-carboxamide] was tested, and the IC50 [1] was over 10 µM and the IC50 [2] was 9.18 µM.

In the case of `O=C(N[C@@H]1CCN(S(=O)(=O)CCCN2CCOCC2)[C@H](Cc2ccccc2)C1)c1cc(C2CC2)on1` [compound 439, N-((2R,4R)-2-benzyl-1-((3-morpholinopropyl)sulfonyl)piperidin-4-yl)-5-cyclopropylisoxazole-3-carboxamide], the IC50 [1] is reported as over 10 µM and the IC50 [2] is reported as over 10 µM.

Work on `O=C(N[C@@H]1C[C@H]2CC[C@@H](C1)N2S(=O)(=O)CCN1CCOCC1)c1cc(C2CC2)on1` [compound 440, 5-cyclopropyl-N-((1R,3s,5S)-8-((2-morpholinoethyl)sulfonyl)-8-azabicyclo[3.2.1]octan-3-yl)isoxazole-3-carboxamide] yielded an IC50 [1] of over 10 µM and an IC50 [2] of over 10 µM.

In the case of `O=C(N[C@H]1C[C@H]2CC[C@@H](C1)N2S(=O)(=O)CCN1CCOCC1)c1cc(C2CC2)on1` [compound 441, 5-cyclopropyl-N-((1R,3r,5S)-8-((2-morpholinoethyl)sulfonyl)-8-azabicyclo[3.2.1]octan-3-yl)isoxazole-3-carboxamide], the IC50 [1] is reported as 3.67 µM and the IC50 [2] is reported as 1.61 µM.

`O=C(NC1CC2CCCC(C1)N2S(=O)(=O)CCN1CCCC1)c1cc(C2CC2)on1` (centres unmarked) [compound 442, 5-cyclopropyl-N-(9-((2-(pyrrolidin-1-yl)ethyl)sulfonyl)-9-azabicyclo[3.3.1]nonan-3-yl)isoxazole-3-carboxamide] showed an IC50 [1] of 4.55 µM and an IC50 [2] of 1.11 µM.

Molecule `O=C(NC1CC2CCCC(C1)N2S(=O)(=O)CCN1CCOCC1)c1cc(C2CC2)on1` (centres unmarked) [compound 443, 5-cyclopropyl-N-(9-((2-morpholinoethyl)sulfonyl)-9-azabicyclo[3.3.1]nonan-3-yl)isoxazole-3-carboxamide] has an IC50 [1] of over 10 µM and an IC50 [2] of over 10 µM.

Molecule `CNCCCS(=O)(=O)N1CC[C@H](NC(=O)c2cc(C3CC3)on2)C[C@@H]1C` [compound 444, 5-cyclopropyl-N-((2S,4S)-2-methyl-1-((3-(methylamino)propyl)sulfonyl)piperidin-4-yl)isoxazole-3-carboxamide] has an IC50 [1] of 0.181 µM and an IC50 [2] of 0.0131 µM.

Molecule `CNc1ccc(S(=O)(=O)N2CC[C@H](NC(=O)c3cc(C4CC4)on3)C[C@@H]2C)cn1` [compound 446, 5-cyclopropyl-N-((2S,4S)-2-methyl-1-((6-(methylamino)pyridin-3-yl)sulfonyl)piperidin-4-yl)isoxazole-3-carboxamide] has an IC50 [1] of 2.25 µM and an IC50 [2] of 0.89 µM.

`CNc1ccc(S(=O)(=O)N2CC[C@@H](NC(=O)c3cc(C4CC4)on3)C[C@H]2C)cn1` [compound 449, 5-cyclopropyl-N-((2R,4R)-2-methyl-1-((6-(methylamino)pyridin-3-yl)sulfonyl)piperidin-4-yl)isoxazole-3-carboxamide] was tested, and the IC50 [1] was over 10 µM and the IC50 [2] was over 10 µM.

For `CC(C)CNc1ccc(S(=O)(=O)N2CC[C@H](NC(=O)c3cc(C4CC4)on3)C[C@@H]2C)cn1` [compound 450, 5-cyclopropyl-N-((2S,4S)-1-((6-(isobutylamino)pyridin-3-yl)sulfonyl)-2-methylpiperidin-4-yl)isoxazole-3-carboxamide], the IC50 [1] was 3.48 µM and the IC50 [2] was 1.1 µM.

Molecule `CC(C)CNc1ccc(S(=O)(=O)N2CC[C@@H](NC(=O)c3cc(C4CC4)on3)C[C@H]2C)cn1` [compound 453, 5-cyclopropyl-N-((2R,4R)-1-((6-(isobutylamino)pyridin-3-yl)sulfonyl)-2-methylpiperidin-4-yl)isoxazole-3-carboxamide] has an IC50 [1] of over 10 µM and an IC50 [2] of 7.19 µM.

Molecule `CC(C)CN(C)c1ccc(S(=O)(=O)N2CC[C@@H](NC(=O)c3cc(C4CC4)on3)C[C@H]2C)cn1` [compound 454, 5-cyclopropyl-N-((2R,4R)-1-((6-(isobutyl(methyl)amino)pyridin-3-yl)sulfonyl)-2-methylpiperidin-4-yl)isoxazole-3-carboxamide] has an IC50 [1] of over 10 µM and an IC50 [2] of over 10 µM.

In the case of `COCCN(C)c1ccc(S(=O)(=O)N2CC[C@@H](NC(=O)c3cc(C4CC4)on3)C[C@H]2C)cn1` [compound 455, 5-cyclopropyl-N-((2R,4R)-1-((6-((2-methoxyethyl)(methyl)amino)pyridin-3-yl)sulfonyl)-2-methylpiperidin-4-yl)isoxazole-3-carboxamide], the IC50 [1] is reported as over 10 µM and the IC50 [2] is reported as over 10 µM.

In the case of `COCCNc1ccc(S(=O)(=O)N2CC[C@@H](NC(=O)c3cc(C4CC4)on3)C[C@H]2C)cn1` [compound 457, 5-cyclopropyl-N-((2R,4R)-1-((6-((2-methoxyethyl)amino)pyridin-3-yl)sulfonyl)-2-methylpiperidin-4-yl)isoxazole-3-carboxamide], the IC50 [1] is reported as over 10 µM and the IC50 [2] is reported as over 10 µM.

With `C[C@@H]1C[C@H](NC(=O)c2cc(C3CC3)on2)CCN1S(=O)(=O)c1ccc(NCCN2CCOCC2)nc1` [compound 459, 5-cyclopropyl-N-((2R,4R)-2-methyl-1-((6-((2-morpholinoethyl)amino)pyridin-3-yl)sulfonyl)piperidin-4-yl)isoxazole-3-carboxamide] the IC50 [1] was 4.58 µM and the IC50 [2] was 2.36 µM.

In the case of `C[C@@H]1C[C@H](NC(=O)c2cc(C3CC3)on2)CCN1S(=O)(=O)c1ccc(N(C)CCN2CCOCC2)nc1` [compound 460, 5-cyclopropyl-N-((2R,4R)-2-methyl-1-((6-(methyl(2-morpholinoethyl)amino)pyridin-3-yl)sulfonyl)piperidin-4-yl)isoxazole-3-carboxamide], the IC50 [1] is reported as over 10 µM and the IC50 [2] is reported as over 10 µM.
